Our source for the IC50 values is US20210070748A1, “INHIBITORS OF BRUTONS TYROSINE KINASE” (Pharmacyclics LLC, priority 2015, published 2021).

One test deals with T1, JAK3 (Homo sapiens, UniProt P52333).
T1 sequence (P52333 1-1124): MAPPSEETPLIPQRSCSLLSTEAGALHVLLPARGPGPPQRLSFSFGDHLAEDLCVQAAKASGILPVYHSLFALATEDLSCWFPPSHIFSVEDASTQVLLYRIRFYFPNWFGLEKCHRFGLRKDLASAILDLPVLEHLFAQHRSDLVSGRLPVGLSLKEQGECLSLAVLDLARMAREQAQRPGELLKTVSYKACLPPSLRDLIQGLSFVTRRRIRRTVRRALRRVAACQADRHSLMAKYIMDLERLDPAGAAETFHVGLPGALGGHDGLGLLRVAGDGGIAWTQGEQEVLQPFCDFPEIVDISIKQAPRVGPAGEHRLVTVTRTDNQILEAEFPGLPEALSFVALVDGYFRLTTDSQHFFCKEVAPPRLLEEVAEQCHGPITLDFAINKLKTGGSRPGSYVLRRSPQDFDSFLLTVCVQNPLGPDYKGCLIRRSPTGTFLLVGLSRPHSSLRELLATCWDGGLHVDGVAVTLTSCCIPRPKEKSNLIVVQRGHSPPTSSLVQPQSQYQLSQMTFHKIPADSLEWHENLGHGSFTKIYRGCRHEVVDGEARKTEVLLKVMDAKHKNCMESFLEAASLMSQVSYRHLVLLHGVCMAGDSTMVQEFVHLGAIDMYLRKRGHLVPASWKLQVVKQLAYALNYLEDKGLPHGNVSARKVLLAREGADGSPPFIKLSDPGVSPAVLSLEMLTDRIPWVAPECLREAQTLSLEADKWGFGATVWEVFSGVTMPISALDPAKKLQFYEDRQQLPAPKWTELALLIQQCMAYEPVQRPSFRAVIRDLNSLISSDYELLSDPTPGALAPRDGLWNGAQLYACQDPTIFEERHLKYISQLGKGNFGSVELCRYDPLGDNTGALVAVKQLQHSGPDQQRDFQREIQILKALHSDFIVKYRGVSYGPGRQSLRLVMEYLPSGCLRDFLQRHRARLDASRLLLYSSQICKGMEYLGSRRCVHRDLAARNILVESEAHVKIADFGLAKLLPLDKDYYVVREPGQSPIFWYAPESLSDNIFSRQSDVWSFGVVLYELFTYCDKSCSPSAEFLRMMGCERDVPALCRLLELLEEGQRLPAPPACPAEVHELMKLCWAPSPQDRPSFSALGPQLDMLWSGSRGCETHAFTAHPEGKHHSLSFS
The test can be described thus: Inhibition of a panel of kinases, in vitro HotSpot kinase assay: JAK3. The following applies: D-compounds panel data; 1 μM ATP; read-out: IC50 JAK3. The test is classed as biochemical.

The target in a further test is EGFR (Homo sapiens, UniProt P00533). The test can be described thus: Inhibition of a panel of kinases, in vitro HotSpot kinase assay: EGFR. The test is classed as biochemical. The following applies: D-compounds panel data; 1 μM ATP. As to the method: The degree of inhibition of a panel of kinases is determined using the in vitro HotSpot kinase assay (purified enzymes, ^33P-ATP, an appropriate substrate and 1 μM ATP).
EGFR, sequence (P00533 25-1210): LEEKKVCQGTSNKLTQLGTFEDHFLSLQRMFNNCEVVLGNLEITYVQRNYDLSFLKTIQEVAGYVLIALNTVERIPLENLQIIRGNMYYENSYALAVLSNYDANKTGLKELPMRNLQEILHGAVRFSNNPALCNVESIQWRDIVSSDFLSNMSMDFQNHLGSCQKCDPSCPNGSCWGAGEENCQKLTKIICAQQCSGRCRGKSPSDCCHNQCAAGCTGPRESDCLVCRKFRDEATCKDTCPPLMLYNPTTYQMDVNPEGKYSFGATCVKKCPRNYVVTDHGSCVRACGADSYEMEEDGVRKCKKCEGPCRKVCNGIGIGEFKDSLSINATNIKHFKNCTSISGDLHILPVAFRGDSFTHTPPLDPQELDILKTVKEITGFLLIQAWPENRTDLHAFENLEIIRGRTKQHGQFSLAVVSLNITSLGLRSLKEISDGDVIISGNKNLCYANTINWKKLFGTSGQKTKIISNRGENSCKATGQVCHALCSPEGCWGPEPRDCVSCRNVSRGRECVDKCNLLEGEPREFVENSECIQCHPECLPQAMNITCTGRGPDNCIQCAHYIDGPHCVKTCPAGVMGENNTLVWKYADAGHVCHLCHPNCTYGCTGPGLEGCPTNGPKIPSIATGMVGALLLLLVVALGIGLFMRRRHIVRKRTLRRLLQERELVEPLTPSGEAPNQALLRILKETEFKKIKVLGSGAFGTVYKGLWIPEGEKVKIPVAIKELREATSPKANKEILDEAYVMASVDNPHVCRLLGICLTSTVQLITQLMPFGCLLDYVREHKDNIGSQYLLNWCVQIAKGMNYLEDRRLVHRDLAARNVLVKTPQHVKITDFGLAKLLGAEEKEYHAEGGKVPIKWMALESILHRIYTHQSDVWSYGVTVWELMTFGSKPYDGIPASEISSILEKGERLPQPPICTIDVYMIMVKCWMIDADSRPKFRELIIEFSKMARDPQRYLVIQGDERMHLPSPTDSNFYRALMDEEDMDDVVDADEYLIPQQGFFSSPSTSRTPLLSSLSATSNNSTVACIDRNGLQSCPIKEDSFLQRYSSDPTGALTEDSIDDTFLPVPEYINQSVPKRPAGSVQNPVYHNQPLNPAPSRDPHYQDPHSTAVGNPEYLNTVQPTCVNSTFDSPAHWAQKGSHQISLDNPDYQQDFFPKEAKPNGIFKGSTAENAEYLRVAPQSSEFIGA

`C[C@@H]1[C@H](NC(=O)c2ccc(C3CC3)cc2)CCCN1c1cnc(C(N)=O)c(Nc2cn(C)nc2C(F)(F)F)n1` [Example D-278, 5-[(2R,3R)-3-(4-cyclopropylbenzamido)-2-methylpiperidin-1-yl]-3-{[1-methyl-3-(trifluoromethyl)-1H-pyrazol-4-yl]amino}pyrazine-2-carboxamide]: the IC50 at JAK3 and at EGFR was above 10000 nM each time.

Take `C[C@@H]1[C@H](NC(=O)c2ccc3[nH]cnc3c2)CCCN1c1cnc(C(N)=O)c(Nc2cnn(C)c2)n1` [Example D-262, N-[(2R,3R)-1-{5-carbamoyl-6-[(1-methyl-1H-pyrazol-4-yl)amino]pyrazin-2-yl}-2-methylpiperidin-3-yl]-1H-1,3-benzodiazole-5-carboxamide]: the IC50 at JAK3 and against EGFR was 1000 to 10000 nM in each case.

In the case of `C[C@@H]1[C@H](NC(=O)c2ccc(C3CC3)nc2)CCCN1c1cnc(C(N)=O)c(Nc2ccc(OC3CCOCC3)cc2)n1` [Example D-309, 5-[(2R,3R)-3-(6-cyclopropylpyridine-3-amido)-2-methylpiperidin-1-yl]-3-{[4-(oxan-4-yloxy)phenyl]amino}pyrazine-2-carboxamide], the half-maximal inhibitory concentration (IC50) at JAK3 and at EGFR was 100 to 1000 nM in each case.

`C[C@@H]1[C@H](NC(=O)c2ccc(C(C)(C)O)cc2F)CCCN1c1cnc(C(N)=O)c(Nc2cnn(C)c2)n1` [Example D-302, 5-[(2R,3R)-3-[2-fluoro-4-(2-hydroxypropan-2-yl)benzamido]-2-methylpiperidin-1-yl]-3-[(1-methyl-1H-pyrazol-4-yl)amino]pyrazine-2-carboxamide]: the IC50 on JAK3 lay in the range of 100 to 1000 nM; against EGFR it was 10 to 100 nM.

Consider `C[C@@H]1[C@H](NC(=O)c2ccc(C3CC3)cc2)CCCN1c1cnc(C(N)=O)c(Nc2ccc3c(c2)OC(F)(F)O3)n1` [Example D-315, 5-[(2R,3R)-3-(4-cyclopropylbenzamido)-2-methylpiperidin-1-yl]-3-[(2,2-difluoro-2H-1,3-benzodioxol-5-yl)amino]pyrazine-2-carboxamide], for which the IC50 at JAK3 and on EGFR was above 10000 nM throughout.

As for `C[C@@H]1[C@H](NC(=O)c2ccc(C(N)=O)cc2)CCCN1c1cnc(C(N)=O)c(Nc2cnn(C)c2)n1` [Example D-268, 1-N-[(2R,3R)-1-{5-carbamoyl-6-[(1-methyl-1H-pyrazol-4-yl)amino]pyrazin-2-yl}-2-methylpiperidin-3-yl]benzene-1,4-dicarboxamide], the half-inhibitory concentration (IC50) lay within 1000 to 10000 nM on JAK3 and 100 to 1000 nM on EGFR.

`COCCn1cc(Nc2nc(N3CCC[C@@H](NC(=O)c4ccc(C5CC5)cc4)[C@H]3C)cnc2C(N)=O)cn1` [Example D-270, 5-[(2R,3R)-3-(4-cyclopropylbenzamido)-2-methylpiperidin-1-yl]-3-{[1-(2-methoxyethyl)-1H-pyrazol-4-yl]amino}pyrazine-2-carboxamide]: the IC50 on JAK3 and on EGFR was 1000 to 10000 nM throughout.

For the compound `C[C@@H]1[C@H](NC(=O)c2ccc(C3CC3)cc2)CCCN1c1cnc(C(N)=O)c(Nc2cnn(C)c2C(F)(F)F)n1` [Example D-276, 5-[(2R,3R)-3-(4-cyclopropylbenzamido)-2-methylpiperidin-1-yl]-3-{[1-methyl-5-(trifluoromethyl)-1H-pyrazol-4-yl]amino}pyrazine-2-carboxamide], the IC50 at JAK3 and against EGFR was above 10000 nM each time.

`C[C@@H]1[C@H](NC(=O)c2ccc3nn(C)cc3c2)CCCN1c1cnc(C(N)=O)c(Nc2cnn(C)c2)n1` [Example D-267, N-[(2R,3R)-1-{5-carbamoyl-6-[(1-methyl-1H-pyrazol-4-yl)amino]pyrazin-2-yl}-2-methylpiperidin-3-yl]-2-methyl-2H-indazole-5-carboxamide]: the values for the IC50 at JAK3 and against EGFR were 1000 to 10000 nM and 100 to 1000 nM, respectively.

With `C[C@@H]1[C@H](NC(=O)c2ccc(C(C)(C)C)cc2)CCCN1c1cnc(C(N)=O)c(Nc2cnn(C)c2)n1` [Example D-22, 5-[(2R,3R)-3-(4-tert-butylbenzamido)-2-methylpiperidin-1-yl]-3-[(1-methyl-1H-pyrazol-4-yl)amino]pyrazine-2-carboxamide], the figures for the IC50 at JAK3 and on EGFR were above 10000 nM and 1000 to 10000 nM, respectively.

`C[C@@H]1[C@H](NC(=O)c2ccc(C(C)(O)CO)cc2)CCCN1c1cnc(C(N)=O)c(Nc2cnn(C)c2)n1` (single isomer, unassigned) [Example D-265]: the IC50 on JAK3 and on EGFR was 100 to 1000 nM each time.

On to `CCN(C)C(=O)N[C@@H]1CCCN(c2cnc(C(N)=O)c(Nc3cnn(C)c3)n2)[C@@H]1C` [Example D-304, 5-[(2R,3R)-3-{[ethyl(methyl)carbamoyl]amino}-2-methylpiperidin-1-yl]-3-[(1-methyl-1H-pyrazol-4-yl)amino]pyrazine-2-carboxamide], for which the IC50 at JAK3 and against EGFR was 1000 to 10000 nM in each case.

`C[C@@H]1[C@H](NC(=O)c2ccc(C(C)(C)O)cc2F)CCCN1c1nnc(C(N)=O)c(Nc2cnn(C)c2)n1` [Example D-308, 3-[(2R,3R)-3-[2-fluoro-4-(2-hydroxypropan-2-yl)benzamido]-2-methylpiperidin-1-yl]-5-[(1-methyl-1H-pyrazol-4-yl)amino]-1,2,4-triazine-6-carboxamide]: the half-maximal inhibitory concentration (IC50) on JAK3 and against EGFR was 1000 to 10000 nM throughout.

With `C[C@@H]1[C@H](NC(=O)c2cc3c(n2C)CC(C)(C)C3)CCCN1c1cnc(C(N)=O)c(Nc2cnn(C)c2)n1` [Example D-19, 3-[(1-methyl-1H-pyrazol-4-yl)amino]-5-[(2R,3R)-2-methyl-3-{1,5,5-trimethyl-1H,4H,5H,6H-cyclopenta[b]pyrrole-2-amido}piperidin-1-yl]pyrazine-2-carboxamide], the half-maximal inhibitory concentration (IC50) at JAK3 and at EGFR was 100 to 1000 nM throughout.

Take `C[C@@H]1[C@H](NC(=O)c2ccc(C3CC3)cc2)CCCN1c1cnc(C(N)=O)c(Nc2cn[nH]c2)n1` [Example D-282, 5-[(2R,3R)-3-(4-cyclopropylbenzamido)-2-methylpiperidin-1-yl]-3-[(1H-pyrazol-4-yl)amino]pyrazine-2-carboxamide]: the IC50 is above 10000 nM on JAK3 and 1000 to 10000 nM against EGFR.

In the case of `C[C@@H]1[C@H](NC(=O)c2ccc3c(cnn3C)c2)CCCN1c1cnc(C(N)=O)c(Nc2cnn(C)c2)n1` [Example D-254, N-[(2R,3R)-1-{5-carbamoyl-6-[(1-methyl-1H-pyrazol-4-yl)amino]pyrazin-2-yl}-2-methylpiperidin-3-yl]-1-methyl-1H-indazole-5-carboxamide], the half-maximal inhibitory concentration (IC50) at JAK3 and against EGFR was 1000 to 10000 nM each time.

With `C[C@@H]1[C@H](NC(=O)c2ccc(C3CC3)nc2)CCCN1c1cnc(C(N)=O)c(Nc2ccc(N3CCC(F)(F)CC3)cc2)n1` [Example D-305, 5-[(2R,3R)-3-(6-cyclopropylpyridine-3-amido)-2-methylpiperidin-1-yl]-3-{[4-(4,4-difluoropiperidin-1-yl)phenyl]amino}pyrazine-2-carboxamide], the concentration for half-maximal inhibition (IC50) was above 10000 nM on JAK3 and 1000 to 10000 nM on EGFR.

With `CCOCCOc1ccc(Nc2nc(N3CCC[C@@H](NC(=O)c4ccc(C5CC5)cc4)[C@H]3C)cnc2C(N)=O)cc1` [Example D-299, 5-[(2R,3R)-3-(4-cyclopropylbenzamido)-2-methylpiperidin-1-yl]-3-{[4-(2-ethoxyethoxy)phenyl]amino}pyrazine-2-carboxamide], the half-maximal inhibitory concentration (IC50) on JAK3 and at EGFR was above 10000 nM each time.

For orientation: IC50 means the concentration that inhibits the measured activity by half.
